In ChEMBL document CHEMBL1155501, “Studies on two types of PTP1B inhibitors for the treatment of type 2 diabetes: Hologram QSAR for OBA and BBB analogues” (Bioorg Med Chem Lett, 2010):

Molecular target: T1, Tyrosine-protein phosphatase non-receptor type 1 (Homo sapiens, UniProt P18031)
T1 sequence (P18031 whole entry): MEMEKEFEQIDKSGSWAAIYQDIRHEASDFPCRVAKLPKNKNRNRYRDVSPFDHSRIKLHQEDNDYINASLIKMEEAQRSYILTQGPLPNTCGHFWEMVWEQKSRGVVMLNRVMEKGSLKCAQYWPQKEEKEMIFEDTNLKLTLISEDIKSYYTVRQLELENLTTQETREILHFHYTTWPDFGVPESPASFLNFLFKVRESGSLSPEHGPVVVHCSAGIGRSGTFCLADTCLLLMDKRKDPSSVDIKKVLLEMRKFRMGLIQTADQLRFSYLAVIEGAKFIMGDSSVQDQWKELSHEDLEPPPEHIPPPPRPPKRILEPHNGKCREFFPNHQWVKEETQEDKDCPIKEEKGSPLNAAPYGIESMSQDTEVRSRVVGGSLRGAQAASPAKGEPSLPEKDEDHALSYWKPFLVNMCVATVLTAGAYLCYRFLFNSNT
Test: Binding affinity to human recombinant PTP1B

IC50 [µM] | Ki [µM] | SMILES
0.692 | – | CCCCc1sc2ccccc2c1-c1ccc(-c2ccc(O)cc2)cc1
0.447 | – | Oc1c(Br)cc(-c2ccc(-c3c(Cc4ccccc4)sc4ccccc34)cc2)cc1Br
0.457 | – | O=C(O)/C=C/C(=O)Nc1cc(-c2ccc(-c3c(Cc4ccccc4)oc4ccccc34)cc2)ccc1O
– | 1260 | Cc1cccc(C(=O)O)c1NC(=O)C(=O)O
2.19 | – | CCCCc1sc2ccccc2c1-c1ccc(-c2ccc(OCC(=O)O)cc2)cc1
– | 6.03 | Nc1cccc(-c2cc(NC(=O)C(=O)O)c(C(=O)O)s2)c1
– | 6.03 | O=C(O)C(=O)Nc1sc2c(c1C(=O)O)CCS(=O)(=O)C2
0.12 | – | O=C(O)[C@H](Oc1ccc(-c2ccc(-c3c(Cc4ccc(O)cc4O)sc4ccccc34)cc2)cc1)c1ccccc1
